Measured values published in PubChem BioAssay (NCI).
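Compound exposure: 48 hours, 5 concentrations, 96-well plates. TGI: total growth inhibition.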

What was measured:
Assay in all cases: NCI tumour cell line growth inhibition, 48 h
A549 NSCLC = system: A549 NSCLC
ACHN renal = system: ACHN renal
EKVX NSCLC = system: EKVX NSCLC
M14 melanoma = system: M14 melanoma
MALME-3M melanoma = system: MALME-3M melanoma
MCF7 breast = system: MCF7 breast
MDA-MB-231 breast = system: MDA-MB-231 breast
NCI-H226 lung = system: NCI-H226 lung
OVCAR-8 ovarian = system: OVCAR-8 ovarian
PC-3 prostate = system: PC-3 prostate
SNB-75 CNS = system: SNB-75 CNS

## Cc1cccc(-c2cc(=O)c3ccc(C)nc3[nH]2)c1
A549 NSCLC
  TGI: > 100 µM
ACHN renal
  TGI: > 100 µM
EKVX NSCLC
  TGI: > 100 µM
M14 melanoma
  TGI: > 100 µM
MALME-3M melanoma
  TGI: > 100 µM
MCF7 breast
  TGI: > 100 µM
MDA-MB-231 breast
  TGI: 5.87 µM
NCI-H226 lung
  TGI: 26.8 µM
OVCAR-8 ovarian
  TGI: > 100 µM
PC-3 prostate
  TGI: > 82.9 µM
SNB-75 CNS
  TGI: 49.2 µM

## O=[N+]([O-])CC(SCc1ccccc1)c1ccc2c(c1)OCO2 (centres undefined)
A549 NSCLC
  TGI: 21.8 µM
ACHN renal
  TGI: 28.3 µM
EKVX NSCLC
  TGI: 39.5 µM
M14 melanoma
  TGI: 13.1 µM
MALME-3M melanoma
  TGI: 30.1 µM
MCF7 breast
  TGI: 9.73 µM
MDA-MB-231 breast
  TGI: 25.6 µM
NCI-H226 lung
  TGI: 23.2 µM
OVCAR-8 ovarian
  TGI: 19.2 µM
PC-3 prostate
  TGI: 33.1 µM
SNB-75 CNS
  TGI: 30.6 µM

## N#Cc1c(=O)c2cc([N+](=O)[O-])ccc2n2c1[nH]c1ccccc12
A549 NSCLC
  TGI: > 100 µM
ACHN renal
  TGI: > 93.5 µM
EKVX NSCLC
  TGI: > 100 µM
M14 melanoma
  TGI: > 64.6 µM
MALME-3M melanoma
  TGI: 35.4 µM
MCF7 breast
  TGI: > 86.5 µM
MDA-MB-231 breast
  TGI: > 57.4 µM
NCI-H226 lung
  TGI: > 51 µM
OVCAR-8 ovarian
  TGI: > 79.5 µM
PC-3 prostate
  TGI: > 100 µM
SNB-75 CNS
  TGI: > 100 µM

## CCN1/C(=C/c2ccc3ccccc3[n+]2CC)C=Cc2ccccc21
A549 NSCLC
  TGI: 17.1 µM
ACHN renal
  TGI: 31.5 µM
EKVX NSCLC
  TGI: 16.7 µM
M14 melanoma
  TGI: 12.8 µM
MALME-3M melanoma
  TGI: 6.89 µM
MCF7 breast
  TGI: 13.1 µM
MDA-MB-231 breast
  TGI: 8.12 µM
NCI-H226 lung
  TGI: 9.71 µM
OVCAR-8 ovarian
  TGI: 12.4 µM
PC-3 prostate
  TGI: 4.58 µM
SNB-75 CNS
  TGI: 2.27 µM

## CCC(=O)OCc1ccc2oc(=O)c(C(=O)Oc3cncc(Cl)c3)cc2c1
A549 NSCLC
  TGI: > 100 µM
ACHN renal
  TGI: > 100 µM
EKVX NSCLC
  TGI: > 100 µM
M14 melanoma
  TGI: > 100 µM
MALME-3M melanoma
  TGI: > 100 µM
MCF7 breast
  TGI: > 100 µM
MDA-MB-231 breast
  TGI: > 100 µM
NCI-H226 lung
  TGI: > 100 µM
OVCAR-8 ovarian
  TGI: > 100 µM
PC-3 prostate
  TGI: > 100 µM
SNB-75 CNS
  TGI: > 100 µM

## CC(=O)Oc1ccn2nc(C)c(Br)c2c1Br
A549 NSCLC
  TGI: 57.6 µM
ACHN renal
  TGI: 31.4 µM
EKVX NSCLC
  TGI: > 58.5 µM
M14 melanoma
  TGI: 34.7 µM
MALME-3M melanoma
  TGI: 40.6 µM
MCF7 breast
  TGI: 36.1 µM
MDA-MB-231 breast
  TGI: 54.3 µM
NCI-H226 lung
  TGI: > 60.2 µM
OVCAR-8 ovarian
  TGI: > 83.7 µM
PC-3 prostate
  TGI: 43.7 µM
SNB-75 CNS
  TGI: > 56.2 µM

## O=C1Oc2ccccc2C(=O)/C1=C/N1C(=O)/C(=C/c2ccc([N+](=O)[O-])cc2)SC1=S
A549 NSCLC
  TGI: > 100 µM
ACHN renal
  TGI: 34 µM
EKVX NSCLC
  TGI: > 100 µM
M14 melanoma
  TGI: 65.6 µM
MALME-3M melanoma
  TGI: > 100 µM
MCF7 breast
  TGI: > 100 µM
MDA-MB-231 breast
  TGI: 57.2 µM
NCI-H226 lung
  TGI: 53.4 µM
OVCAR-8 ovarian
  TGI: 96.7 µM
PC-3 prostate
  TGI: 61.7 µM
SNB-75 CNS
  TGI: 54.3 µM

## N=c1c2c3n(c4c(=O)n(-c5ccccc5)c(=S)n(c(=O)n1-c1ccccc1)c24)CCCCC3
A549 NSCLC
  TGI: > 100 µM
ACHN renal
  TGI: > 100 µM
EKVX NSCLC
  TGI: > 100 µM
M14 melanoma
  TGI: > 100 µM
MALME-3M melanoma
  TGI: > 100 µM
MCF7 breast
  TGI: > 100 µM
MDA-MB-231 breast
  TGI: > 100 µM
NCI-H226 lung
  TGI: > 100 µM
OVCAR-8 ovarian
  TGI: > 100 µM
PC-3 prostate
  TGI: > 100 µM
SNB-75 CNS
  TGI: > 100 µM

## Oc1cc(Cl)cc2cc(Br)cnc12
A549 NSCLC
  TGI: > 42.6 µM
ACHN renal
  TGI: > 32.1 µM
EKVX NSCLC
  TGI: > 64.2 µM
M14 melanoma
  TGI: 6 µM
MALME-3M melanoma
  TGI: 21 µM
MCF7 breast
  TGI: > 29.9 µM
MDA-MB-231 breast
  TGI: > 100 µM
NCI-H226 lung
  TGI: > 88.5 µM
OVCAR-8 ovarian
  TGI: > 26.9 µM
PC-3 prostate
  TGI: > 100 µM
SNB-75 CNS
  TGI: > 100 µM
